# Laboratory results reported in ChEMBL document CHEMBL1201862, “PubChem BioAssay data set” (2004).
# Where “and” joins values, the source holds several entries; their conditions need not be identical. Identical values can stand only once. Calls of active or inactive are those of the source.
# Key:
# [1] = cytotoxicity in HEK-293T cells, dose response, cytotoxicity control for BCR NF-kB inhibitor project, luminescence, B-cell screen hits (AID 489021); format: functional, cell-based;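 note: HEK-293T cells carrying an NF-kB luciferase reporter; cells exposed to compound for about 14 hours before viability readout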
# [2] = target: G-protein coupled receptor 55 (Homo sapiens, UniProt Q9Y2T6); assay: GPR55 antagonists blocking LPI-driven arrestin recruitment, primary screen, imaging, U2OS, beta-arrestin-GFP, LPI agonist (AID 2013); format: functional;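 note: antagonist potency measured as reduced agonist-driven arrestin aggregation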
# G-protein coupled receptor 55, sequence (Q9Y2T6 whole entry): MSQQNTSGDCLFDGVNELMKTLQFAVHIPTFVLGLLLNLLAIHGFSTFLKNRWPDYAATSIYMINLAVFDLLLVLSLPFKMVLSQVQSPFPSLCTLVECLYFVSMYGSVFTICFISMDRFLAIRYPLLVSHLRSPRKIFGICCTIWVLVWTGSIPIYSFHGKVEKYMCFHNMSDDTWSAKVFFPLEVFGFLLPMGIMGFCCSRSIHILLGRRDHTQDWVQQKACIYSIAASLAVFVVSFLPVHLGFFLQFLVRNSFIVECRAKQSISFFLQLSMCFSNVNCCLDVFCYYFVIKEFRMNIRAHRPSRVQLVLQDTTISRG
# cells = format: functional
# Beta-galactosidase [3] = target: T1, Beta-galactosidase (Escherichia coli, UniProt Q8VNN2); format: functional
# T1 sequence (Q8VNN2 whole entry): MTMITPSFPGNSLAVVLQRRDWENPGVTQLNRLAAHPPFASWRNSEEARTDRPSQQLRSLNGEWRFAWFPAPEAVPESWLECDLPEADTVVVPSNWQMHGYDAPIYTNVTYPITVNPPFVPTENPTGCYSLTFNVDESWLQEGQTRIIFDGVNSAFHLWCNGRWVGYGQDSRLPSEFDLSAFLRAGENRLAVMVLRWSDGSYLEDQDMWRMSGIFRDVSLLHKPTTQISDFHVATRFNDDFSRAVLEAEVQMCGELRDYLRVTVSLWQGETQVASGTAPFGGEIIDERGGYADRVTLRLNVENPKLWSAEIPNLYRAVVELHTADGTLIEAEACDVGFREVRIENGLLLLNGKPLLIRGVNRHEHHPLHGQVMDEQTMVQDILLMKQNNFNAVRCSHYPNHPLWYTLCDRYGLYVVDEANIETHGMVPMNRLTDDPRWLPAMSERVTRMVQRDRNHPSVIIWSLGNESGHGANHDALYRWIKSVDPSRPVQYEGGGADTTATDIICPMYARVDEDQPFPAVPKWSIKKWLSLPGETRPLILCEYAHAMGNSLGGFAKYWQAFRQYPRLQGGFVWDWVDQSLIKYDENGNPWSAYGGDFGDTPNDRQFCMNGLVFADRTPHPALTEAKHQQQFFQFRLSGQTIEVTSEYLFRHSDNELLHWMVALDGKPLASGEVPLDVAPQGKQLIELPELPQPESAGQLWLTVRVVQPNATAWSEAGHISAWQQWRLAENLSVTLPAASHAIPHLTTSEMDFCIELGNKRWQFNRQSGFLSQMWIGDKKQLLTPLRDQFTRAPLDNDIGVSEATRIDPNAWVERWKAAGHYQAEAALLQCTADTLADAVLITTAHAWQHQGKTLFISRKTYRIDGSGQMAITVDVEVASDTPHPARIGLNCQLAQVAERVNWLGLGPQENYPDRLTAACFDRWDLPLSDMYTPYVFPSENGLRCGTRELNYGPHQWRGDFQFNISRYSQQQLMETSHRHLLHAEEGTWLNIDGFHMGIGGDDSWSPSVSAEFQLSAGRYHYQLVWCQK
# [4] = target: T2, Kappa-type opioid receptor (Homo sapiens, UniProt P41145); format: functional
# T2 sequence (P41145 whole entry): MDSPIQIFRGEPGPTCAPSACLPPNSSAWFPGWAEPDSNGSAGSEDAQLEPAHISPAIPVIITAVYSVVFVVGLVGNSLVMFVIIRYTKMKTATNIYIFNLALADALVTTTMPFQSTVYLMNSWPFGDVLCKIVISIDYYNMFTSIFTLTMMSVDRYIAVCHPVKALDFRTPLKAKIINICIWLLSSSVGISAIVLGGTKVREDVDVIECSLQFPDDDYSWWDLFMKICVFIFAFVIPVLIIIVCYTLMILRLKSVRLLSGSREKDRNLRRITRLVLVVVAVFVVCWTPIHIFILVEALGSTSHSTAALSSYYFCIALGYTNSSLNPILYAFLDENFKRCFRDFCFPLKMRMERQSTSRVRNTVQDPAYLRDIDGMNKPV
# [5] = HEK293 cell cytotoxicity, dose response, cytotoxicity control, plate reader, cherry-picked samples (AID 743446); format: functional, cell-based
# [6] = HepG2 cell cytotoxicity, dose response, cytotoxicity control for non-replicating M. tuberculosis project (AID 489018); format: functional; conditions: Mycobacterium tuberculosis
# [7] = MC4R antagonists, dose response, counter-screen for LGR2 antagonist project, cell-based, plate reader, cherry pick (AID 743444); format: functional;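 note: transfected HEK 293 cells stimulated with alpha-MSH peptide; potency of inhibitors of the alpha-MSH evoked signal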
# [8] = test system: Streptococcus sp. 'group A'; assay: growth inhibition of control SK(-) GAS strain, dose response, counter-screen for streptokinase expression inhibitor project, luminescence, kanamycin, BacTiterGlo, confirmation (AID 1900); format: functional, organism-based
# [9] = Luminescence Cell-Based Dose Confirmation HTS to Identify Inhibitors of Platelet Dense Granule Release. [Related pubchem assays: 1663 (Primary HTS), 1678 (Summary of Project)]; format: functional
# [10] = Vero E6 cell cytotoxicity, dose response, cytotoxicity control for non-replicating M. tuberculosis project, secondary assay (AID 492998); format: functional, VeroE6; conditions: Vero C1008
# [11] = target: Luciferin 4-monooxygenase (Photinus pyralis, UniProt P08659); assay: firefly luciferase enzyme inhibitors, dose response, biochemical, luminescence (AID 1891)
# Luciferin 4-monooxygenase, sequence (P08659 whole entry): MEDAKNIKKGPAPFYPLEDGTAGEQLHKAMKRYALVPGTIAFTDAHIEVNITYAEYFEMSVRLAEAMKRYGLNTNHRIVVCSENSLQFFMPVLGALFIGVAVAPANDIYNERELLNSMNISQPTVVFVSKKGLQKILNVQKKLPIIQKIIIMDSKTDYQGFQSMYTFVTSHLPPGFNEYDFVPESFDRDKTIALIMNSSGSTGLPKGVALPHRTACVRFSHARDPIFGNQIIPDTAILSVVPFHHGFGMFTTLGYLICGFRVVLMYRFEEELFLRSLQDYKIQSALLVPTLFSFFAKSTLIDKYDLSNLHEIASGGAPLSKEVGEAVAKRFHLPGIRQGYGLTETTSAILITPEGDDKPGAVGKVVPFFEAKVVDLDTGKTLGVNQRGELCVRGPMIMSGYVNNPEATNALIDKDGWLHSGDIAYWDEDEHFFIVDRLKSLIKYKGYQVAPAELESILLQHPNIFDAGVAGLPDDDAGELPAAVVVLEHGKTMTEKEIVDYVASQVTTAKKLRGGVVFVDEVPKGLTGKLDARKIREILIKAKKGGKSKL
# INS1 = assay: beta cell apoptosis inhibitors, cytokine rescue, dose response, luminescence, retest (AID 449756); format: functional, cell-based; conditions: Rattus norvegicus;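 note: cell death triggered by IL-1 beta plus TNF-alpha plus IFN-gamma mixture; protective hits raise ATP signal compared with cytokine alone wells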
# [12] = target: T2, Kappa-type opioid receptor; format: functional; remark: listed apart in the source
# [13] = THP-1 cell cytotoxicity, dose response, cytotoxicity control for non-replicating M. tuberculosis project (AID 489025); format: functional
# [14] = HepG2 cell cytotoxicity, dose response, cytotoxicity control, plate reader, cherry-pick, antagonist series (AID 743416); format: functional, cell-based
# Vero = assay: cells; format: functional; conditions: Chlorocebus sabaeus
# [15] = LGR2 antagonists, dose response, cell-based, HEK293, CRE-luciferase reporter, cherry pick, set 2 (AID 743343); format: functional;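 note: transfected cells were stimulated with diluted bursicon conditioned medium after compound addition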
# Streptococcus = assay: Group A Streptococcus viability loss, dose response, counter-screen for streptokinase expression inhibitor project, luminescence, BacTiterGlo (AID 1915); format: functional, organism-based;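 note: potency for reduction of bacterial viability or growth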
# [16] = A549 cell cytotoxicity, dose response, cytotoxicity control, plate reader, cherry-pick, antagonist series (AID 743412); format: functional, cell-based
# Phosphomannomutase 2 = target: T3, Phosphomannomutase 2 (Homo sapiens, UniProt O15305); assay: Counter screen SAR assay for PMM2 inhibitors via a fluorescence intensity assay. [Related pubchem assays (depositor defined):AID1545, AID1574]
# T3 sequence (O15305 whole entry): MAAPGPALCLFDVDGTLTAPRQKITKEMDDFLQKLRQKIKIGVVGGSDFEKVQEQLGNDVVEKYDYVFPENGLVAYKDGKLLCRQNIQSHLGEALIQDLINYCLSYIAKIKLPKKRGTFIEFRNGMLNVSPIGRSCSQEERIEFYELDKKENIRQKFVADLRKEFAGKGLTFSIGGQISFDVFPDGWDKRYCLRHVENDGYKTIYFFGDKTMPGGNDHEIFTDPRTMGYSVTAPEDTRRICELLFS
# [17] = target: T4, Mannose-6-phosphate isomerase (Homo sapiens, UniProt P34949); assay: PMI enzyme inhibitors, confirmation, biochemical, fluorescence intensity (AID 1535)
# T4 sequence (P34949 whole entry): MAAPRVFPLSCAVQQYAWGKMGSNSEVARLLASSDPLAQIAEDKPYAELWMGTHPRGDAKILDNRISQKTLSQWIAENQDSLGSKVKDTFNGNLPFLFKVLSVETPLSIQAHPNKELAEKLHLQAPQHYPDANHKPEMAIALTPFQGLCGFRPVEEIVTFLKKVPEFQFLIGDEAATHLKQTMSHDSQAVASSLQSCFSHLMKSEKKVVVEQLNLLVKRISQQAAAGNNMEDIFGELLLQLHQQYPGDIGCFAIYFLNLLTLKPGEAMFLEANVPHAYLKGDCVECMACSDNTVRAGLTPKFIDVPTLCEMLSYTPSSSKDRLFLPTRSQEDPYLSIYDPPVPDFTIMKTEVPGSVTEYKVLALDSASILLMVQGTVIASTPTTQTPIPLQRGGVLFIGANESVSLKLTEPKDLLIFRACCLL
# [18] = target: Alkaline phosphatase, placental type (Homo sapiens, UniProt P05187); assay: PLAP enzyme inhibitors, confirmation, biochemical, luminescence (AID 1512); format: functional
# Alkaline phosphatase, placental type, sequence (P05187 whole entry): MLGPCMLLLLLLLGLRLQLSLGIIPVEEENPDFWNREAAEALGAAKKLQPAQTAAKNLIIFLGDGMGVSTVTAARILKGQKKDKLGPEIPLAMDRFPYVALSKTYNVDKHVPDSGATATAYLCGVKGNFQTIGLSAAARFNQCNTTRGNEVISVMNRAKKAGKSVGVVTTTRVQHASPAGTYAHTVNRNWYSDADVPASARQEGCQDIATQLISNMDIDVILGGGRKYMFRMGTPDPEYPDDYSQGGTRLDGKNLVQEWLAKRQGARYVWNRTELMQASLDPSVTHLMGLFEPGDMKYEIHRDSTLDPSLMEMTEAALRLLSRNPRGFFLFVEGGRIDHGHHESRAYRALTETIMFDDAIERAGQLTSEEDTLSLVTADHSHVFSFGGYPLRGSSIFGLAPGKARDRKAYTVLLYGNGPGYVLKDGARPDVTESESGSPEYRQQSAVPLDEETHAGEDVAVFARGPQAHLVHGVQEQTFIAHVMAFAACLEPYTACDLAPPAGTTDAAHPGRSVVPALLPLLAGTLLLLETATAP
# Cytochrome P450 2C9 = Cytochrome P450 2C9 (Homo sapiens, UniProt P11712)
# Cytochrome P450 2C9, sequence (P11712 whole entry): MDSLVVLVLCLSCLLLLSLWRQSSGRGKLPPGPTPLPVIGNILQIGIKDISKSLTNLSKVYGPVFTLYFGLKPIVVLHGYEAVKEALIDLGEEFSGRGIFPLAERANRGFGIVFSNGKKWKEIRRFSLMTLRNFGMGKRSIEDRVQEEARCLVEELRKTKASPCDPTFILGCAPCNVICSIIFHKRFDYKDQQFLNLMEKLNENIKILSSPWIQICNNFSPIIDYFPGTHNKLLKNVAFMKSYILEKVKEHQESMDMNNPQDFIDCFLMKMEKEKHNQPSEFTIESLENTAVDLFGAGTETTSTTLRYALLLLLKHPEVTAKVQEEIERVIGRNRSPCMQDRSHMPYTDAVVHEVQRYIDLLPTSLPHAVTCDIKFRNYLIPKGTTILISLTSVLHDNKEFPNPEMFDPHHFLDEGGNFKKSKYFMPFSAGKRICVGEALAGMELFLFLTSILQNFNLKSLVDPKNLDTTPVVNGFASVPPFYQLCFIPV
# HEK293 [19] = assay: cells; format: functional, cell-based; conditions: Homo sapiens
# HEK293 [20] = assay: NOD2 signaling inhibitors in MDP-stimulated cells, cell-based, uHTS, luminescence (AID 2001); format: functional; conditions: Homo sapiens
# Tumor necrosis factor = Tumor necrosis factor (Homo sapiens, UniProt P01375); assay: TNFa-triggered NF-kB activation inhibitors, SAR follow-up, cell-based, revised (AID 2337); format: functional
# Tumor necrosis factor, sequence (P01375 whole entry): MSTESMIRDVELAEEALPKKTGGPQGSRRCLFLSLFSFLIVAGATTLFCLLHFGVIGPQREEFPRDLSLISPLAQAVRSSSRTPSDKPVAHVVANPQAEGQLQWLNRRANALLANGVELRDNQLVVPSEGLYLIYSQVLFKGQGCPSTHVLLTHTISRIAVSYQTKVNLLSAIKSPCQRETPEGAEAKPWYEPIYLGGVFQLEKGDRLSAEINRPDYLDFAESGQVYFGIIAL
# HEK293 [21] = assay: NOD1 signaling inhibitors, primary screen, cell-based, luminescence, uHTS (AID 1578); format: functional; conditions: Homo sapiens
# HEK293 [22] = assay: cells; format: functional, cell-based; conditions: Homo sapiens; remark: listed apart in the source
# [23] = target: Nucleotide-binding oligomerization domain-containing protein 1 (Homo sapiens, UniProt Q9Y239); assay: NOD1 signaling inhibitors, SAR follow-up, revised (AID 2333); format: functional
# Nucleotide-binding oligomerization domain-containing protein 1, sequence (Q9Y239 whole entry, the tested form may be a part): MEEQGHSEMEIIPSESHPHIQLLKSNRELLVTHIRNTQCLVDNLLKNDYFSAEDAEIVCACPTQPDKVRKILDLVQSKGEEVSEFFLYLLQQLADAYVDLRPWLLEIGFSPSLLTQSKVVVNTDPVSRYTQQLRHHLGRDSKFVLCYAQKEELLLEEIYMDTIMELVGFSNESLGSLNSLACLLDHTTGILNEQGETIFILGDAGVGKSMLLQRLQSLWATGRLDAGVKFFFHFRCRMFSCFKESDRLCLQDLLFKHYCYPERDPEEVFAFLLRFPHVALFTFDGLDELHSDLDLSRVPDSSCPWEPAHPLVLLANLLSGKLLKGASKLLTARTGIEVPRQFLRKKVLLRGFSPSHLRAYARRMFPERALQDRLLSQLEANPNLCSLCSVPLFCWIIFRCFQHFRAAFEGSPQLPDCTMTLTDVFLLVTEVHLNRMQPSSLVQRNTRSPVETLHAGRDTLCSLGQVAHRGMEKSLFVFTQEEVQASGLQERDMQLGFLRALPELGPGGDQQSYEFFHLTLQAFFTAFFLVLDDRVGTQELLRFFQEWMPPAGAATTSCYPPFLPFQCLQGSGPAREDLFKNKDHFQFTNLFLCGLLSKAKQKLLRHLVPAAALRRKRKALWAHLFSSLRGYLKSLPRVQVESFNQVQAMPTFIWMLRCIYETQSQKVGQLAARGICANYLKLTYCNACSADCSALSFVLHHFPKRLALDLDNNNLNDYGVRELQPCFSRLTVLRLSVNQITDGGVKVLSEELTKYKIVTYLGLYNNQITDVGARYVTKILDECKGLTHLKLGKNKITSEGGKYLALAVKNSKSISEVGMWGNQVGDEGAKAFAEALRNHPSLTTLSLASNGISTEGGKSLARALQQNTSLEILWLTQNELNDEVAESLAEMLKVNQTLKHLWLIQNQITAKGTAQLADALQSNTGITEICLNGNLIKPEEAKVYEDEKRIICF
# HEK293 [24] = assay: cells; conditions: Homo sapiens
# Beta-galactosidase [25] = target: T1, Beta-galactosidase; assay: beta-galactosidase enzyme inhibitors and activators, dose response, artefact control for CCR6 antagonist project, biochemical, E. coli enzyme, set 3 (AID 504712); format: functional
# [26] = target: T5, C-C chemokine receptor type 6 (Homo sapiens, UniProt P51684); assay: CCR6 receptor antagonists, dose response, cell-based, luminescent beta-arrestin readout (AID 504728); format: functional
# T5 sequence (P51684 whole entry): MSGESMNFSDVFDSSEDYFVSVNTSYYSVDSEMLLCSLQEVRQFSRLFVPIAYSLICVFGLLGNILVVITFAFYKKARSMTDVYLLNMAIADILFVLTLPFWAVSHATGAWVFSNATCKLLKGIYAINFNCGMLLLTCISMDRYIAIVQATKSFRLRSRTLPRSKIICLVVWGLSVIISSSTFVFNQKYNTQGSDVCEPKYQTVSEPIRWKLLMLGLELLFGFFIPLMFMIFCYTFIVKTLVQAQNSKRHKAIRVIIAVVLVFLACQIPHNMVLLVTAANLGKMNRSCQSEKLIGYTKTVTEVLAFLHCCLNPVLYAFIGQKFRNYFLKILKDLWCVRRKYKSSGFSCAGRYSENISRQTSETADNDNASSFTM
compound,measurement,setting,value
O=C(CCCN1C(=O)S/C(=C\C=C\c2ccccc2)C1=O)Nc1ccc(O)cc1,IC50,[1],> 80 µM (inactive)
CCN1CC2=C(OC(N)=C(C#N)C2c2cccs2)/C(=C/c2cccs2)C1 (centres undefined),IC50,[2],5.29 µM (active)
C=CCn1c(S)nnc1CCc1cc(C(C)(C)C)c(O)c(C(C)(C)C)c1,IC50,[2],3 µM (active)
CCOc1ccc2nc(NC(=O)c3ccccn3)sc2c1,IC50,cells,0.43 µM (active)
same,EC50,Beta-galactosidase [3],> 31.5 µM (inactive)
same,IC50,[4],> 32 µM
same,AC50,[5],8.52 µM (active)
same,CC50,[6],19.3 µM (active)
same,AC50,[7],2.42 µM (active)
same,EC50,[8],2.98 µM (active)
same,EC50,[9],5.58 µM (active)
same,CC50,[10],7.54 µM (active)
same,EC50,[11],0.407 µM (active)
same,AC50,INS1,3.32 µM (active)
same,IC50,[12],6.51 µM (active)
same,CC50,[13],8.2 µM (active)
same,AC50,[14],5.82 µM (active)
same,CC50,Vero,20.4 µM (active)
same,AC50,[15],2 µM (active)
same,EC50,Streptococcus,7.36 µM (active)
same,AC50,[16],3.99 µM (active)
Cc1nn(-c2ccccc2)c(S)c1C=Nc1cccc([N+](=O)[O-])c1,IC50,Phosphomannomutase 2,> 100 µM (inactive)
same,IC50,[17],31.1 µM (active)
O=C(CCc1ccccc1)Nc1nnc[nH]1,IC50,[18],> 100 µM (inactive)
same,AC50,Cytochrome P450 2C9,39.8 µM (inconclusive)
CCOC(=O)c1ccc(NC(=O)c2ccc(CN3CCc4ccccc4C3)cc2)cc1,IC50,HEK293 [19],< 0.312 µM (active)
same,IC50,HEK293 [20],1.3 µM (inactive)
same,IC50,Tumor necrosis factor,1.4 µM (active) and 140 nM (active)
same,EC50,HEK293 [21],0.85 µM (active)
same,IC50,HEK293 [22],> 20 µM (inactive)
same,IC50,[23],335 nM (active) and 152 nM (active)
same,IC50,HEK293 [24],> 20 µM (inactive)
Cc1nn(-c2ccccc2)c2sc(C(=O)N(CC(=O)NC(C)(C)C)Cc3ccco3)cc12,IC50,Beta-galactosidase [25],> 66.6 µM (inactive)
same,IC50,[26],> 66.6 µM (inactive)
